Experimental data: patent US20170014455A1, “INDUCING BROWN FAT FATE AND FUNCTION” (The J. David Gladstone Instiutes, a testamentary trust …, priority 2014, published 2017)

Assays:
C2C12 myoblast cell line = assay: Adipogenesis of C2C12 myoblasts, Oil-red-O staining of lipid droplets (high-throughput phenotypic screen and follow-up); type: cell-based, mouse
Procedure: (§1) C2C12, 3T3-L1 and C3H10T1/2 cells were purchased from ATCC. Primary brown pre-adipocytes were kindly donated by Prof. C. Ronald Kahn (Harvard University). Primary myoblasts were purified from mouse limb muscles and cultured in growth medium (F10+20% FBS+5 ng/ml bFGF) in Matrigel-coated plates (Xiao et al., Cell Res 21, 350-364 (2011)). Adipocyte differentiation was induced by treating cells for 2 days in basal adipogenesis medium (AM) (850 nM insulin, 1 nM T3, 0.5 mM isobuylmethylxanthine, […] indomethacin, 5 μM dexamethasone in10% FBS DMEM). Then cells were switched to 10% FBS DMEM containing 850 nM insulin and 1 nM T3 for another 4-6 days. To stimulate thermogenesis, cells were stimulated with 10 μM forskolin for 4 h.
To identify small molecules that mimic the BAT-inducing activity of Prdm16, a high-throughput phenotypic screen of 20,000 compounds was performed using the C2C12 myoblast cell line with lipid droplets stained by Oil-red-O (ORO) as readout (FIG. 1A). […] In the basal adipogenesis medium (AM), no adipocyte-like cells could be induced from C2C12 myoblasts.

C2C12 cells [1] = assay: Real-time PCR gene expression in C2C12 cells during adipogenesis; type: cell-based, mouse
Procedure: as §1
(§2) Total RNA from cell lines were purified using Qiagen kit, and total RNA from mouse tissues was extracted using Trizol. Complementary DNA was prepared from total RNA with the iScript DNA synthesis kit (Bio-Rad). Quantitative PCR reactions contained SYBR-Green fluorescent dye (ABI). RT-PCR was also used to confirm some gene expression. Relative mRNA expression was determined by the ΔΔ-Ct method with GAPDH as an endogenous control.

[2] = test system: 3T3-L1 white pre-adipocytes; assay: Differentiation and gene expression of 3T3-L1 white pre-adipocytes under brown adipogenic conditions; type: cell-based
Procedure: (§3) C2C12, 3T3-L1 and C3H10T1/2 cells were purchased from ATCC. Primary brown pre-adipocytes were kindly donated by Prof. C. Ronald Kahn (Harvard University). […] Then cells were switched to 10% FBS DMEM containing 850 nM insulin and 1 nM T3 for another 4-6 days. To stimulate thermogenesis, cells were stimulated with 10 μM forskolin for 4 h.
as §2

[3] = test system: C3H10T1/2 mesenchymal cells; assay: Adipogenic induction and gene expression in C3H10T1/2 mesenchymal cells; type: cell-based
Procedure: as §3, §2

[4] = test system: primary mouse embryonic fibroblast (MEF) cells; assay: Adipogenesis and gene expression in primary mouse embryonic fibroblasts; type: cell-based
[5] = test system: primary brown pre-adipocytes (pre-BAT); assay: Differentiation of primary brown pre-adipocytes; type: cell-based
Procedure: as §1, §2
Primary brown pre-adipocytes cells efficiently differentiated into brown adipose tissue in the conventional adipogenesis medium.

C2C12 cells [6] = details: 2-day treatment
Procedure: Mouse genome-wide gene expression analyses were performed using Affymetrix Mouse Gene 1.0 ST Array. […] Microarray analyses were performed in duplicate from independent biologic samples, according to the standard Affymetrix Genechip protocol. Data were normalized and analyzed using Affymetrix Expression Console and Transcriptome Analysis Console (TAC) software. […] The differential expression gene list was further analyzed in DAVID GO functional annotation and GO-Elite (Zambon et al., Bioinformatics 28: 2209-2210 (2012)).

[7] = Oral bexarotene in chow-fed mice: body weight, indirect calorimetry, fat depots, tissue qPCR; type: in vivo, C57BL/6N mice; details: 50 mg/kg/day oral, 4 weeks
Procedure: as §2
C57BL/6N mice were fed ad libitum a standard laboratory chow diet (LabDiet 5053, LabDiet, Purina Mills, Richmond, Ind.). Animals were housed under 12-hour light-dark cycles with controlled temperature (23±1° C.). […] All animal experiments were conducted in accordance with the institutional Guidelines for humane treatment of laboratory animals of HKU Animal Care and Use Committee.
Whole-body oxygen consumption was measured using an open circuit indirect calorimetry system with automatic temperature and light controls (Columbus Instruments). Mice had access ad libitum to chow and water in respiration chambers, and data were recorded for a 48 h period […] acclimatized for 24 h.

[8] = Bexarotene in high fat diet mice: body weight, fat weights, GTT, ITT; type: in vivo, C57BL/6J mice; details: 50 mg/kg daily i.p., high fat diet 4 weeks
Procedure: Male mice (8-week-old, C57BL/6J) were housed in metabolism cages and maintained on a 12 h light-dark cycle at 23° C. The mice were fed a high fat diet (HFD) (21.9 kJ/g, 60% of energy as fat, 20% of energy as protein, 20% of energy as carbohydrate; D12492; Research Diet, New Brunswick, N.J., USA) for four weeks.
Glucose and insulin tolerance tests were performed on the mice at the end of the four week dosing period. Mice were fasted overnight and injected intraperitoneally (i.p.) with 20% glucose at a dose of 2 g/kg body weight for glucose tolerance tests (GTTs). For insulin tolerance tests (ITTs), mice were starved for 6 h and i.p. injected with 0.5 U/kg body weight of recombinant human insulin (Eli Lilly). Blood glucose was monitored from the tail vein blood using a glucometer (ACCU-CHEK Advantage; Roche Diagnostics China, Shanghai, China) at various time points. Mouse body weight, subcutaneous (inguinal fat; SubQ fat), and epididymal adipose tissue weight (epidi weight) were also determined at the end of the 4 week test.

[9] = test system: C2C12 cells over-expressing RXRα, RXRβ or RXRγ; assay: Bexarotene in C2C12 cells overexpressing RXRα, RXRβ or RXRγ; type: cell-based, mouse
Procedure: as §1
Mouse retinoid X receptor-alpha (RXRα) and retinoid X receptor-gamma (RXRγ) plasmids were from Dr. Ronald Evans (Salk Institute) and mouse RXRβ plasmid was purchased from Origene. These three RXR fragments were subcloned into pMXs vectors to generate a retrovirus construct (Yamanaka lab, Gladstone Institutes). Non-target shRNA(shNT), shRXRα, shRXRβ, and shRXRγ lentivirus constructs were purchased from Sigma-Aldrich. Retrovirus and lentivirus constructs were packaged in Plat E and 293T cells, respectively.
as §2
To further characterize the role of retinoid receptors, the RXRα, RXRβ and RXRγ subtype receptors were overexpressed in C2C12 cells.

primary myoblasts = assay: Bexarotene with PRDM16 overexpression in primary myoblasts; type: cell-based, mouse
Procedure: as §1, §2

C3H10T1/2 cells = assay: Ciclopirox and IOX2 gene expression in C3H10T1/2 cells; type: cell-based; details: 0.1 μM to 50 μM
Procedure: as §1, §2
C3H10T1/2 cells were incubated in concentrations of ciclopirox and IOX2 that varied from 0.1 μM to 50 μM. Gene expression levels of genes correlated with the brown adipose tissue phenotype was measured using procedures described in Example 1.

[10] = brown adipogenic differentiation conditions

C=C(c1ccc(C(=O)O)cc1)c1cc2c(cc1C)C(C)(C)CCC2(C)C [bexarotene]
adipogenic reprogramming (C2C12 myoblast cell line; added for 2 days in basal adipogenesis medium): dramatically initiated adipogenic reprogramming in C2C12 cells in a dose-dependent manner
appearance of lipid droplets (Oil-red-O) (C2C12 myoblast cell line; high-throughput screen of 20,000 compounds): led to the appearance of lipid droplets
levels of PPARγ, Fabp4, CD36 and RXR/PPARγ targets Pex11a, Angpt14, HK2 (C2C12 cells [1]; Day 2, qPCR confirmation): significantly increased
expression of PPARγ, Prdm16 and Pgc1α (C2C12 cells [1]; adipogenesis medium, qPCR Day 6): significantly induced
response of induced BAT-like adipocytes to forskolin (Ucp1, Pgc1α) (C2C12 cells [1]; forskolin stimulation 4 h): readily responded to forskolin
response to forskolin stimulation [2]: more robust response
BAT features (small lipid droplets, Ucp1 expression) [2, 10]: induced
white adipose tissue differentiation and PPARγ expression [2, 10]: significantly suppressed
induction of Ucp1 and Pgc1α expression compared with cPGI2 [3]: much greater than that of the COX-2 agonist cPGI2
brown phenotype (thermogenic gene expression to forskolin stimulation) ([3]; 2 days at the beginning of adipogenic induction): induced the brown phenotype
small multilocular lipid droplets and BAT-specific genes Ucp1, Prdm16, PPARα, Pgc1α, Cox7a1, Cox8b ([3]; RXRα or RXRγ overexpression, adipogenic induction): induced
brown phenotype / browning [4]: induced a strong brown phenotype
white adipogenic phenotype [4]: apparently suppressing
Ucp1 expression ([4]; even without forskolin stimulation): induced in a dose-dependent manner
expression of PPARγ and BAT-associated genes incl. Prdm16 and Pgc1α [5]: higher levels of expression
induction of Ucp1 and Pgc1α expression in response to forskolin ([5]; differentiated BAT adipocytes): potentiated
expression of browning genes Fgf21, Pgc1α, Ppargc1a, Acsl1, Tbx15, Ptgs2, G0S2 (C2C12 cells [6]): increased expression
white adipogenesis-associated genes Bmp4 and Egr2 (C2C12 cells [6]): repressed
Ucp1 expression in subcutaneous white adipose tissue (subWAT) ([7]; qPCR): significantly induced although to a lesser extent
thermogenic gene expression (Ucp1, Pgc1α) in brown adipose tissue ([7]; qPCR): marked augmentation
interscapular brown adipose tissue mass (absolute and portion of body weight) ([7]; vs control): increased significantly
lipid droplets in brown adipose tissue (H&E) ([7]; vs control): similar, if not smaller
white adipose tissue depots (subWAT, epiWAT) mass ([7]; vs control): no statistically significant change
body weight gain ([7]; vs saline): smaller gain in body weight
carbon dioxide release (VCO2) ([7]; vs saline): released more CO2
oxygen consumption (VO2) ([7]; vs saline): consumed more oxygen
physical activity ([7]; vs saline): without changes in physical activity
total energy expenditure (heat generation) ([7]; vs saline): significantly more total energy was expended
glucose tolerance test [8]: improved glucose homeostasis
insulin tolerance test [8]: responded to insulin more sensitively
body weight ([8]; vs control): lower body weight
epididymal adipose tissue ([8]; vs control): less epididymal adipose tissue
subcutaneous (inguinal) fat ([8]; vs control): less subcutaneous fat
cells reprogrammed to brown adipose-like cells with multilocular lipid droplets ([9]; RXRα or RXRγ overexpression): nearly all cells
Prdm16 and Ucp1 expression at early stage ([9]; RXRα-overexpressed C2C12 cells, before typical adipocytes appeared): induced Prdm16 expression and even more dramatically induced Ucp1 expression
myogenic genes Myf5, MyoD, MyoG and MHCβ ([9]; bexarotene/RXR reprogrammed cells): dramatically attenuated
Ucp1 expression response to forskolin ([9]; bexarotene/RXR-induced BAT-like cells): robustly responded
potentiation of Prdm16 overexpression-induced Ucp1 expression (primary myoblasts; Prdm16 overexpression): more than fourfold
lipid droplet size (primary myoblasts; added to PRDM16 overexpression vs PRDM16 overexpression alone): much smaller lipid droplets

O=C(O)CNC(=O)c1c(O)c2ccccc2n(Cc2ccccc2)c1=O [IOX2]
expression of PPARγ and several brown adipocyte-specific genes (C3H10T1/2 cells): significantly induced
response of BAT-like adipocytes to forskolin (Ucp1, Pgc1α) (C3H10T1/2 cells): readily responded to forskolin

Cc1cc(C2CCCCC2)n(O)c(=O)c1 [ciclopirox]
expression of PPARγ and several brown adipocyte-specific genes (C3H10T1/2 cells): significantly induced
response of BAT-like adipocytes to forskolin (Ucp1, Pgc1α) (C3H10T1/2 cells): readily responded to forskolin

CN1c2ccc([N+](=O)[O-])cc2N=C(c2ccc(C(=O)O)cc2)c2cc3c(cc21)C(C)(C)CCC3(C)C [HX531]
bexarotene-induced brown adipogenic induction (C2C12 myoblast cell line; with bexarotene, first 2 days, 10 μM each): completely abolished
white adipose tissue adipogenesis [2]: promoted
white adipose tissue adipogenesis [3]: promoted
Bex-induced BAT differentiation ([5]; with bexarotene): reduced
